The target of one assay is T1, NMDAR/TRPM4 complex (Mus musculus, UniProt Q7TN37).
T1 construct: Lumbar spinal cords were dissected from mice two weeks after ALZET osmotic pump (1002) implantation; from tissue; host or cells: lumbar spinal cord of wild-type mice treated in vivo with vehicle or FP802
The assay can be described thus: Co-immunoprecipitation of the NMDAR/TRPM4 complex from lumbar spinal cord lysates of treated animals. It is filed as in vivo. Conditions: two weeks after osmotic pump implantation. How it is done:
A total of 83 heterozygous SOD1^G93A and 22 wild-type littermates were employed in this study. Eight WT and 12 SOD1^G93A mice were used to determine the EAAT2 protein levels in the spinal cord. Three SOD1^G93A mice were treated with FP802 to explore the concentration of FP802 in the spinal cord. Four SOD1^G93A mice were used to test the tolerability of mice to subcutaneously ALZET osmotic pump (type 2004) implantation with FP802 that allowed a continuous and constant supply of compound to the animals for 4 weeks. Eight wild-type mice were used to explore the disruption of the NMDAR/TRPM4 death signaling complex by FP802. In total, 52 SOD1^G93A mice were treated with FP802 or vehicle via ALZET osmotic pump from week 15 for 30 days (four cohorts). It was not possible to extend the treatment beyond the 30 days application period because the poor health state of many animals was incompatible with the anesthesia required for surgical implantation of a second osmotic pump. The number of animals used for experiments was specified in the figure legends. […]
All procedures for immunoprecipitation were carried out at 4°C as described before.[20] […] Protein concentrations of the supernatants were measured using the Pierce BCA Protein Assay Kit. […]

The test system of assay [1] is human iPSC-derived forebrain organoids. The assay can be described thus: NMDA-induced neurotoxicity in human iPSC-derived forebrain organoids. In kind it is cell-based. Conditions: for IC50: Homo sapiens, NMDA 300 μM, read-out: IC50, protection against NMDA-induced neurotoxicity. The method, then: The generation of human-iPSC-derived forebrain organoids was carried out in accordance with the regulations of Heidelberg University. The sporadic ALS iPSC line and the SOD1^G94A ALS iPSC line were purchased from Cedars-Sinai (CS2XWCiALS-nxx and CS2RJViALS-nxx). The healthy control iPSC lines were from Dr. Jochen Utikal (DKFZ, Germany). Forebrain organoids were generated and maintained as described previously.[37]^,[45] Briefly, hiPSCs were dissociated into single cells by Accutase and aggregated in round bottom 96-microwell plates with 5 min centrifugation at 600 rpm. On the second day, hiPSC aggregates were collected and transferred into low attachment 35 mm dishes (24 aggregates/dish) and kept in neural induction medium (DMEM/F12 medium supplemented with 1× penicillin/streptomycin, 1× Normocin, 1× GlutaMAX, 1× N-2 supplement, 2× B27 without vitamin A, 500 nM dorsomorphin, 50 ng/mL recombinant human noggin, 10 μM SB431542, 2 μM IWP-2, 1 μM cyclopamine, and 0.1% β-mercaptoethanol) for 3 days with a daily medium change. Recombinant human FGF (10 ng/mL) was present in neural induction medium from day 4 to day 7 with one medium change on day 5.5. On day 7, neural induction medium was changed to proliferation medium (neurobasal medium supplemented with 1× GlutaMAX, 1× penicillin/streptomycin, 1× Normocin, 1× B27 without vitamin A, 10 ng/mL recombinant human FGF, 10 ng/mL recombinant human EGF, 2 μM IWP-2, and 1 μM cyclopamine) for two weeks with medium change every 2–3 days. In week 4–5, the proliferation medium was changed to differentiation medium (neurobasal medium supplemented with 1× GlutaMAX, 1× penicillin/streptomycin, 1× Normocin, 10 ng/mL recombinant human BDNF, and 10 ng/mL recombinant human NT-3) with medium change every 2–3 days. From week 6, the organoids were kept in the maturation medium (BrainPhys medium supplemented with 1× GlutaMAX, 1× penicillin/streptomycin, 1× Normocin) until week 18–20 when they were used for experiments.
The analysis of forebrain organoid cell types that undergo NMDA-induced cell death was done using immunostainings of cryosections of 20-week-old forebrain organoids with antibodies against the neuronal markers, NeuN and Myelin transcription factor 1 like (Myt1L) protein, and the astrocyte marker, glial fibrillary acidic protein (GFAP) using the following procedure. All organoids were washed with PBS twice and fixed using 4% paraformaldehyde in PBS for 30 min, followed by 24 h incubation with 30% sucrose solution in PBS. Organoids were snap frozen on dry ice in cryoprotectants and 30 μm cryosections were prepared for staining. […] Cells stained with NeuN, Myt1L, and Hoechst were automatically counted with ImageJ with the particle analyzer with a self-developed macro using the Binary-Watershed function, size exclusion was set at 60 μm^2. NeuN-positive and Myt1L-positive post-mitotic neurons were counted in confocal section z-stacks of whole organoids (5–8 organoids from 2 batches) with ImageJ with the particle analyzer with a self-developed macro using the Binary-Watershed function, size exclusion was set at 60 μm^2 and expressed as a percentage of total Hoechst-stained nuclei. GFAP staining was quantified by measuring the fluorescent signals of z-stacks of confocal sections of whole organoids (5–6 organoids from 2 batches) using ImageJ and expressed as arbitrary units. […]

Where two headings read alike, the source gives them in different places.

T1 sequence (Q7TN37 whole entry, one chain of several): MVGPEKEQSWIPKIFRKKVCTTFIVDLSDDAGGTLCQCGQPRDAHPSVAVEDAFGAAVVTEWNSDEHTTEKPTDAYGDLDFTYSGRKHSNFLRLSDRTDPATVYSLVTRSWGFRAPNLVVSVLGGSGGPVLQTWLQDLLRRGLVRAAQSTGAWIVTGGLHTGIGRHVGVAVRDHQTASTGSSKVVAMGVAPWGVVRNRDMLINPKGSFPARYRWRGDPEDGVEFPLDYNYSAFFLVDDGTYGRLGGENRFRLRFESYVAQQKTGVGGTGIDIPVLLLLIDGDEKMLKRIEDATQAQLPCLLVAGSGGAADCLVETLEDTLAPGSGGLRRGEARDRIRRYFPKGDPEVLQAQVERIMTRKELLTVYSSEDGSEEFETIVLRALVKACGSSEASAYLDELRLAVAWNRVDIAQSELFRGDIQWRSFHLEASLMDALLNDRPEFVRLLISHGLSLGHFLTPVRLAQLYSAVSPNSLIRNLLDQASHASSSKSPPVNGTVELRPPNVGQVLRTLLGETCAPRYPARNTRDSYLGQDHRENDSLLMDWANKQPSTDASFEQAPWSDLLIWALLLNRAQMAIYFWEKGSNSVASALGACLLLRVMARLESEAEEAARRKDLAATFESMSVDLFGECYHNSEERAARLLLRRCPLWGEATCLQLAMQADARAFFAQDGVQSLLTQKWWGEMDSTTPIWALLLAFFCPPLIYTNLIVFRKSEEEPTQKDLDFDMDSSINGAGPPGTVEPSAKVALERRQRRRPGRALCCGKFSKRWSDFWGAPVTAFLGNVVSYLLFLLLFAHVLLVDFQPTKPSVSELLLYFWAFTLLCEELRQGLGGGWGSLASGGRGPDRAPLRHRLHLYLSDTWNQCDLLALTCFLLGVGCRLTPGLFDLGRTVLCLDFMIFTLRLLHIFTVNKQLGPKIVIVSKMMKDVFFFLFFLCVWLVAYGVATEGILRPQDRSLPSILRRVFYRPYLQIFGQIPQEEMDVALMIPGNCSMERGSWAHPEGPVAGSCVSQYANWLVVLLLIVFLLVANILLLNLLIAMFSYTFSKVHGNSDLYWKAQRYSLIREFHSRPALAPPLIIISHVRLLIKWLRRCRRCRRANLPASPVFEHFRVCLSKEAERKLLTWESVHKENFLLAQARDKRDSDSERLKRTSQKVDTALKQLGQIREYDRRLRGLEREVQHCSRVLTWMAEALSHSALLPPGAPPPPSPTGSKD

Turning to `CCN(CCN)Cc1cccc(Cl)c1` [FP802], the “interaction of TRPM4 with the NMDAR subunit GluN2B (co-immunoprecipitation)” value on NMDAR/TRPM4 complex is given as “disrupted”. Moreover, the IC50 stood at 9 µM in assay [1] (SOD1G94A ALS organoids), 26 µM in assay [1] (healthy control-1 organoids), 15 µM in assay [1] (healthy control-2 organoids) and 9.3 µM in assay [1] (sporadic ALS organoids). Moreover, the “NMDA-induced death of neurons in ALS patient-derived organoids” value in assay [1] (NMDA 300 μM 24 h, NeuN/Myt1L immunostaining and viability, dose-dependent) was “effectively blocked”.

Usually IC50 stands for the concentration needed to halve the response being measured.

(Values after paper PMC10897598, “TwinF interface inhibitor FP802 stops loss of motor neurons and mitigates disease progression in a mouse model of ALS” (Cell Reports Medicine, 2024).)
